In patent US11414429B2, “Compound or pharmaceutically acceptable salt thereof” (RIKEN, priority 2016, dated 2022):

Legend:
[1] = test system: human colorectal cancer cell line, COLO-320DM; assay: Cell proliferation inhibitory activity test (Celltiter-Glo Luminescent Cell Viability Assay); format: cell-based; conditions: COLO-320DM cells, 96 hours, read-out: COLO-320 DM cell proliferation inhibitory activity (GI50 class)
Protocol: (Test Example 2) Cell Proliferation Inhibitory Activity Test
The cell proliferation inhibitory activity of the compound obtained in each of Examples against human colorectal cancer cell line, COLO-320DM was evaluated by Celltiter-Glo Luminescent Cell Viability Assay (Promega Corporation, G7573). The COLO-320 DM cells were cultured in a RPMI-1640 medium (Wako Pure Chemical Industries, Ltd., 189-02025) containing 10% fetal bovine serum and 2 mM of glutamine. The cultured cells were washed with PBS and then detached with trypsin/EDTA to prepare a cell solution containing 3×10^4 cells/mL.
Next, the cell solution was seeded in a 96 well microplate (Thermo/Nunc, 136101) in an amount of 70 μL/well and was cultured overnight under conditions at 37° C. with 5% CO2. On the next day, 10 μL/well of a solution in which the test target compound (DMSO solution) was diluted with the cell culture medium (a final DMSO concentration of 1%) was added and the reaction was allowed to proceed under conditions at 37° C. with 5% CO2 for 96 hours (a 1% DMSO solution was used as a control). Subsequently, 80 μL/well of Celltiter-Glo Luminescent Cell Viability Assay reagent (Promega Corporation, G7573) was added, followed by agitation for 2 minutes with a shaker under shielding with aluminum foil. Thereafter, the resultant solution was allowed to stand for reaction at room temperature for 10 minutes.
After that, the luminescent signal was measured with a luminometer (Biotech, Synergy). The cell proliferation inhibitory activity was evaluated by obtaining a percentage of a cell proliferation volume of each compound-added group with respect to a cell proliferation volume (100%) of a control group in which no test target component solution was added, and calculating a value of compound concentration (GI50) required to reduce the remaining cell volume to 50% of the remaining cell volume of the control. […] The results are shown in Tables 120 to 123 together with the results of the tankyrase inhibition activity test.

[2] = biological target: T1, tankyrase 2 (TNKS 2) (Homo sapiens, UniProt Q9H2K2); assay: Tankyrase inhibitory activity test (ELISA, self-polyADP ribosylation), tankyrase 2; format: biochemical; conditions: tankyrase 2, ELISA, self-polyADP ribosylation; read-out: TNKS2 inhibitory activity (IC50 class)
T1 construct: 613-1, 116aa; made in house; host or cells: cell-free protein synthesis system
Protocol: (§1) (Test Example 1) Tankyrase Inhibitory Activity Test
(§2) For each of the compounds obtained in Examples (the test target compounds), the tankyrase inhibitory activity (an inhibitory activity against tankyrase 1 (TNKS 1) and an inhibitory activity against tankyrase 2 (TNKS 2)) was evaluated by measuring the enzymatic activity of tankyrase 1 and the enzymatic activity of tankyrase 2 by the ELISA technique using self-polyADP ribosylation as an index. First, Flag-tag fusion tankyrase 1 (1,024-1,327aa, SAM+PARP) and tankyrase 2 (613-1, 116aa, ANK5+SAM+PARP) were each synthesized by a cell-free protein synthesis system and diluted with a Tris buffer (50 mM Tris-HCl (pH 8.0), 150 mM NaCl, 10% glycerol). Then, 50 μL of the diluted tankyrase 1 or tankyrase 2 was added to a plate on which the anti-FLAGM 2 monoclonal antibody was immobilized (Anti-FLAG high sensitivity M2 coated plate) (SIGMA Corporation), and was allowed to stand at 4° C. overnight. Thereafter, the plate was washed four times with a PBS buffer containing 0.1% Triton X-100 (PBST buffer).
(§3) Subsequently, the test target compound diluted with an assay buffer (50 mM Tris-HCl (pH 8.0), 4 mM MgCl2, 0.2 mM DTT) (using DMSO as a control) was added to each well of the plate and was allowed to stand at room temperature for 10 minutes. Thereafter, a biotin-labeled NAD solution (225 μM NAD, 25 μM 6-Biotin-17-NAD (Trevigen Inc.)) was added as a donor substrate and mixed with the resultant test target compound, and the reaction was allowed to proceed at 30° C. for 45 minutes. Instead of the biotin-labeled NAD solution, distilled water was added to blank wells. After the reaction, the plate was washed four times with the PBST buffer. Thereafter, HRP (horseradish peroxidase)-labeled streptavidin (Trevigen Inc.) diluted 1,000-fold with the PBS buffer was added to each well, and the reaction was allowed to proceed at room temperature for 20 minutes. After the plate was washed four times with the PBST buffer, a chemiluminescent substrate solution TACS-Sapphire (Trevigen Inc.) was added to each well and the reaction was allowed to proceed at room temperature for 20 minutes. Then, the chemiluminescence intensity was measured using a chemiluminescence measuring apparatus.
(§4) The residual enzyme activity in the presence of the test target compound was determined in accordance with the following formula. Based on the residual enzyme activity at multiple concentrations of the test target compound, an enzyme inhibition activity was calculated as a 50% inhibitory concentration (IC50 value) using data analysis software named Origin (LightStone Corp.).

[3] = biological target: T2, tankyrase 1 (TNKS 1) (Homo sapiens, UniProt O95271); assay: Tankyrase inhibitory activity test (ELISA, self-polyADP ribosylation), tankyrase 1; format: biochemical; conditions: tankyrase 1, ELISA, self-polyADP ribosylation; read-out: TNKS1 inhibitory activity (IC50 class)
T2 construct: 1,024-1,327aa; made in house; host or cells: cell-free protein synthesis system
Protocol: as §1, §2, §3, §4

T2 sequence (O95271 1024-1327): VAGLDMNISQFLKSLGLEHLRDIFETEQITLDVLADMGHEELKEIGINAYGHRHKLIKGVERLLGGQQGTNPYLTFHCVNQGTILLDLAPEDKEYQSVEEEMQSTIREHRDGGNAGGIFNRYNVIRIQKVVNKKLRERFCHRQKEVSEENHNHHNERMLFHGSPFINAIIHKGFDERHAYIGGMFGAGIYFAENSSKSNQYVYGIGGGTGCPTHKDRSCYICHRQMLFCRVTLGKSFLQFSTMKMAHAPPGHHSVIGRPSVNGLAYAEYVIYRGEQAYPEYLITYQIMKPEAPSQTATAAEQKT
T1 sequence (Q9H2K2 613-1166): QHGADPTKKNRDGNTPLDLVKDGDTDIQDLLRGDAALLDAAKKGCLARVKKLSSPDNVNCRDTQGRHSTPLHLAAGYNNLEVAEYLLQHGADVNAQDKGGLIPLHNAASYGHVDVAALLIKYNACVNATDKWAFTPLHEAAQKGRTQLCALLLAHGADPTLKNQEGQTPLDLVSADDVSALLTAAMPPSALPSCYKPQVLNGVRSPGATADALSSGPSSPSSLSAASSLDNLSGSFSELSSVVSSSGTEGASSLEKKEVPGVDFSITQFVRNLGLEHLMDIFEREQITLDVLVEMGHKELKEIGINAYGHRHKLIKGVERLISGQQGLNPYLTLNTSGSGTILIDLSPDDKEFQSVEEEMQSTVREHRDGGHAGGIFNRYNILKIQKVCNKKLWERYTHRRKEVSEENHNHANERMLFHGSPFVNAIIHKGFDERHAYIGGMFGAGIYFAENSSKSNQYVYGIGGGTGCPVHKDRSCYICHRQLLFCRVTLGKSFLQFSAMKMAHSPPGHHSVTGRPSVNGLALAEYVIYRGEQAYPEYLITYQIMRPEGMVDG

GI50 [1] [nM]	IC50 [2] [nM]	IC50 [3] [nM]	SMILES
100 to 600	< 20	< 20	O=c1[nH]c(N2CCC3(CC2)CN(Cc2ccccn2)c2cc(F)cc(F)c23)nc2c1CCCC2 [Example 253, 2-[4,6-difluoro-1-(pyridin-2-yl)methyl-spiro [indoline-3,4′-piperidin]-1′-yl]-5,6,7,8-tetrahydro-quinazolin-4(3H)-one]
100 to 600	< 20	< 20	O=c1[nH]c(N2CCC3(CC2)CN(Cc2ccncc2)c2cc(F)cc(F)c23)nc2c1CCCC2 [Example 254, 2-[4,6-difluoro-1-(pyridin-4-yl)methyl-spiro[indoline-3,4′-piperidin]-1′-yl]-5,6,7,8-tetrahydro-quinazolin-4(3H)-one]
600 to 1000	< 20	< 20	Cc1cccc2c(=O)[nH]c(N3CCC4(CC3)CN(CCO)c3cc(F)cc(F)c34)nc12 [Example 258, 2-[4,6-di-fluoro-1-(2-hydroxy-ethyl)spiro-[indoline-3,4′-piperidin]-1′-yl]-8-methyl-quinazolin-4(3H)-one]
600 to 1000	< 20	< 20	O=c1[nH]c(N2CCC3(CC2)CN(CCO)c2cc(F)cc(F)c23)nc2c(CO)cccc12 [Example 259, 2-[4,6-di-fluoro-1-(2-hydroxy-ethyl)spiro-[indoline-3,4′-piperidin]-1′-yl]-8-(hydroxy-methyl)-quinazolin-4(3H)-one]
600 to 1000	< 20	< 20	O=C1N(Cc2cccnc2)c2cc(F)cc(F)c2C12CCN(c1nc3c(CO)cccc3c(=O)[nH]1)CC2 [Example 273, 4,6-difluoro-1′-[8-(hydroxymethyl)-4-oxo-3,4-dihydro-quinazolin-2-yl]-1-(pyridin-3-ylmethyl)-spiro[indoline-3,4′-piperidin]-2-one]
100 to 600	< 20	< 20	CN1CCCc2c1nc(N1CCC3(CC1)C(=O)N(C)c1ccccc13)[nH]c2=O [Example 292, 1-methyl-1′-(8-methyl-4-oxo-3,4,5,6,7,8-hexa-hydropyrido-[2,3-d]-pyrimidin-2-yl)-spiro[indoline-3,4′-piperidine]-2-one]
100 to 600	< 20	< 20	O=c1[nH]c(N2CCC3(CC2)CN(Cc2ncccn2)c2cc(F)cc(F)c23)nc2c1CCCC2 [Example 316, 2-[4,6-difluoro-1-(pyrimidin-2-yl-methyl)spiro-[indoline-3,4′-piperidine]-1′-yl]-5,6,7,8-tetrahydro-quinazoline-4(3H)-one]
600 to 1000	< 20	< 20	CN1C(=O)C2(CCN(c3nc4c(c(=O)[nH]3)CCCC4)CC2)c2c(Cl)cc(-c3nc(C(=O)N4CCOCC4)co3)cc21 [Example 323, 4-chloro-1-methyl-6-[4-(morpholine-4-carbonyl)oxazole-2-yl]-1′-(4-oxo-3,4,5,6,7,8-hexa-hydroquinazoline-2-yl)spiro[indoline-3,4′-piperidin]-2-one]
600 to 1000	20 to 200	20 to 200	CN1CCCc2c1nc(N1CCC3(CC1)C(=O)N(C)c1cc(-c4nc(C(=O)N5CCOCC5)co4)cc(Cl)c13)[nH]c2=O [Example 326, 4-chloro-6-[4-(morpholine-4-carbonyl)-oxazol-2-yl]-1-methyl-1′-(8-methyl-4-oxo-3,4,5,6,7,8-hexahydro-pyrido[2,3-d]-pyrimidin-2-yl)spino-[indoline-3,4′-piperidin]-2-one]
100 to 600	< 20	< 20	CN1CCCc2c1nc(N1CCC3(CC1)C(=O)N(C)c1c(C#N)ccc(Cl)c13)[nH]c2=O [Example 327, 4-chloro-1-methyl-1′-(8-methyl-4-oxo-3,4,5,6,7,8-hexahydro-pyrido[2,3-d]-pyrimidin-2-yl)-2-oxo-spiro[indoline-3,4′-piperidine]-7-carbonitrile]
100 to 600	< 20	20 to 200	CCOC(=O)c1coc(-c2cc(Cl)c3c(c2)N(C)C(=O)C32CCN(c3nc4c(c(=O)[nH]3)CCCN4C)CC2)n1 [Example 328, 4-chloro-6-(4-ethoxy-carbonyl-oxazole-2-yl)-1-methyl-1′-(8-methyl-4-oxo-3,4,5,6,7,8-hexahydro-pyrido[2,3-d]-pyrimidin-2-yl)spiro-[indoline-3,4′-piperidin]-2-one]
600 to 1000	20 to 200	20 to 200	CN1CCCc2c1nc(N1CCC3(CC1)C(=O)N(C)c1cc(-c4nc(CN5CCCC5)co4)cc(Cl)c13)[nH]c2=O [Example 329, 4-chloro-1-methyl-1′-(8-methyl-4-oxo-3,4,5,6,7,8-hexahydro-pyrido[2,3-d]-pyrimidin-2-yl)-6-[4-(pyrroidin-1yl-methyl)oxazol-2-yl]-spiro-[indoline-3,4′-piperidin]-2-one]
600 to 1000	< 20	< 20	CN1CCCc2c1nc(N1CCC3(CC1)C(=O)N(C)c1c(C(N)=O)ccc(Cl)c13)[nH]c2=O [Example 330, 4-chloro-1-methyl-1′-(8-methyl-4-oxo-3,4,5,6,7,8-hexahydro-pyrido[2,3-d]-pyrimidin-2-yl)-2-oxospiro-[indoline-3,4′-piperidine]-7-carboxamide]
600 to 1000	< 20	< 20	CN1CCCc2c1nc(N1CCC3(CC1)C(=O)N(C)c1cc(-c4nc(C(=O)O)co4)cc(Cl)c13)[nH]c2=O [Example 331, 2-{4-chloro-1-methyl-1′-(8-methyl-4-oxo-3,4,5,6,7,8-hexahydro-pyrido[2,3-d]pyrimidin-2-yl)-2-oxospiro [indoline-3,4′-piperidin]-6-yl]oxazole-4-carboxylic acid]
100 to 600	< 20	< 20	O=C1N(Cc2cccnc2)c2cc(F)cc(F)c2C12CCN(c1nc3c(c(=O)[nH]1)CCCC3)CC2 [Example 333, 4,6-difluoro-1′-(4-oxo-3,4,5,6,7,8-hexahydro-quinazolin-2-yl)-1-(pyridin-3-ylmethyl) spiro[indoline-3,4′-piperidin]-2-one]
600 to 1000	< 20	< 20	CN1C(=O)C2(CCN(c3nc4c(c(=O)[nH]3)CCCC4)CC2)c2c(Cl)cc(OCCCN3CCOCC3)cc21 [Example 334]
100 to 600	< 20	< 20	CN1CC2(CCN(c3nc4c(c(=O)[nH]3)CCCN4C)CC2)c2c(F)cc(F)cc21 [Example 337, 2-(4,6-difluoro-1-methylspiro [indoline-3,4′-piperidin]-1′-yl)-8-methyl-5,6,7,8-tetrahy-dropyrido [2,3-d] pyrimidin-4(3H)-one]
